In paper PMC11783601, “Analogue-Sensitive Inhibition of Histone Demethylases Uncovers Member-Specific Function in Ribosomal Protein Synthesis” (Journal of the American Chemical Society, 2025):
“Also recorded” adds a separate entry of the source.

Target: T1, full-length KDM4B-F186A (Homo sapiens, UniProt O94953, F186A)
T1 construct: we generated the full-length as mutants of the remaining KDM4s; host or cells: HEK293T
T1 sequence (O94953 1-1096 F186A): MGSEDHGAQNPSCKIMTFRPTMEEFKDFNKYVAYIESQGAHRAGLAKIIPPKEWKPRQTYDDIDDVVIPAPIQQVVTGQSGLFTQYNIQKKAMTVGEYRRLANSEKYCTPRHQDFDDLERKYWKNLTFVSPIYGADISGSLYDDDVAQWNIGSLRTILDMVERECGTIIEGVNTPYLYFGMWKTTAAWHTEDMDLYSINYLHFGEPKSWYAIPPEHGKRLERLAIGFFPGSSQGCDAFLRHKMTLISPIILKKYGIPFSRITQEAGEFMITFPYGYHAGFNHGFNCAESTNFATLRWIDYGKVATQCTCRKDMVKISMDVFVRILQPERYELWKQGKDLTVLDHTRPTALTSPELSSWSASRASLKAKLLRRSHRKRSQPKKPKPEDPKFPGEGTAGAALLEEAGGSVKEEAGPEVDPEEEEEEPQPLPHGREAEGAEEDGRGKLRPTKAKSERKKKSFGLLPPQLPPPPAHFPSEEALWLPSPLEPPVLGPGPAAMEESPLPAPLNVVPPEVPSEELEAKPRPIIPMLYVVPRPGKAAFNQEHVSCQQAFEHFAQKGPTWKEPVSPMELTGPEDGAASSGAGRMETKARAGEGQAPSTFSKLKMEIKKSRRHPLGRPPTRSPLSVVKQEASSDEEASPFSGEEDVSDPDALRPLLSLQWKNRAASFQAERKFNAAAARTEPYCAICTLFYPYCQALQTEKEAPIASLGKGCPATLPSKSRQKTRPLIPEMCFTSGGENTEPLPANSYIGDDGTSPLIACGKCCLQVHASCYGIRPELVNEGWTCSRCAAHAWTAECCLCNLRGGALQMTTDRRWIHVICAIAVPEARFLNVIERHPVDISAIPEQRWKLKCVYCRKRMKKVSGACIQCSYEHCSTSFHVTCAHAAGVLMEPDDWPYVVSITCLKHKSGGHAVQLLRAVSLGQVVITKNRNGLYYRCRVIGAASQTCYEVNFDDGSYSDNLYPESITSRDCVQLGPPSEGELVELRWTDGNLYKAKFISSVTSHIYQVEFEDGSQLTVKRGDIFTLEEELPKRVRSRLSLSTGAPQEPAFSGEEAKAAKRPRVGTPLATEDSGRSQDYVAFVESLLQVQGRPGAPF
Assay: H3K9me3 Western blot of nuclear extracts of transfected HEK293T cells
Format: cell-based
Details: for inhibition of KDM4B-F186A (asKDM4B) H3K9me3 demethylation: 10 μM concentration; for inhibition of KDM4B-F186A H3K9me3 demethylation, dose-dependent: 10, 20 µM
Description: KDM4B and C are structurally homologous to KDM4A, and KDM4D and E have a catalytic pocket near-identical to that of KDM4A but lack the Tudor and PHD domains known to bind trimethylated lysine in histones (Figure 1B).[11] HEK293T cells were transfected with full-length wild type KDM4B-E or their respective mutants. Western blot analysis of nuclear preparations using the H3K9me3 antibody confirmed all of the proteins to be catalytically active (Figures 4G–N and S32–S35).
KDM4A mammalian expression plasmid in CMV vector was purchased from Addgene (plasmid #24180). KDM4B mammalian expression plasmid in CMV vector was purchased from Addgene (plasmid #24181). KDM4C mammalian expression plasmid in CMV vector was purchased from Addgene (plasmid #24214). KDM4D mammalian expression plasmid in pReciever vector was purchased from Genecopoia (EX-Z0917-M06.) KDME mammalian expression plasmid in pRP-EXP was designed from Vector Builder. The KDM4A-F185A, KDM4B-F186A, KDM4C -F187A, KDM4D-F189A, and KDM4E F186A mutants were generated using Quikchange Lightening Mutagenesis Kit (Agilent) according to manufacturer’s protocol and confirmed by Sanger […]
HEK293T/17 cells (ATCC) were grown in Delbucco’s Modified Eagle Medium (DMEM) (Corning) with 10% FBS at 37 °C (Corning), 5% CO2, and 95% relative humidity in a 6-well cell culture plate. When cells reached 90% confluency, 3 µg of plasmid and 6 µg lipofectamine 2000 (Invitrogen: 11668019) were incubated with 100 µL OptiMem. After 5 minutes the plasmid and lipofectamine were combined and incubated at room temperature for 20 minutes and added to the cell culture disk. Cells were returned to the incubator to grow for 4-6 hours. This was followed by treatment of compound treatment (n-octyl IOX121,22 or a specific NOG ester) at indicated concentrations and further culture for specified time. The media was removed, and cells were washed with ice cold PBS (Corning), then trypsinized with TrpLE Express (Gibco). The trypsinization reaction was quenched with DMEM 10% FBS and cells were pelleted then washed once with ice cold PBS. The nuclear extracts were generated by first resuspending the cell pellets in 700 µL nuclear isolation buffer (15 mM Tris pH 7.5, 60 mM KCl, 15 mM NaCl, 5 mM MgCl2, 1 mM CaCl2, 1mm DTT, 2 mM Na3Van, 250 mM sucrose, 1X Pierce protease inhibitor (Thermo Fisher #PIA32955), 1 mM PMSF, 0.3% NP40 diluted to volume with MilliQ H2O) and incubated on ice for 5 minutes.23 The samples were then pelleted by centrifugation at 2000 rcf for 5 minutes.
The supernatant was removed, and the pelleted nuclei were resuspended in 200 µL Pierce IP lysis buffer (Thermo Fisher #87787) containing 1X Pierce protease inhibitor and left on ice for 5 minutes. The nuclei were then sonicated at 100% amp for 5 minutes (pulsed 1 minute “on”, 20 seconds “rest”) using a Qsonica-Q700, cuphorn sonicator. The samples were pelleted once again at 2000 rcf for 5 minutes and the supernatant containing the nuclear extracts were collected. MgCl2 (1M) solution was added to each sample give a final concentration of 6mM. […]
Prism with the corresponding bars representing the mean and standard deviation of the population.
For the time dependent imaging, cells containing the transfected KDM4A mutant were identified by their HA signal. These cells were used to create a selection which was then imposed onto the respective H3K9me3 or BrdU images. The mean signal was then measured for H3K9me3 or BrdU only within the cells expressing the KDM4A mutant. To compare changes in H3K9me3 or BrdU between trials, the quantification values were normalized to the mean signal at t=0. The normalized, mean signal and error for H3K9me3 or BrdU were then plotted in GraphPad Prism.
21. General protocol for Western blotting
Assay samples were mixed with appropriate volume of 4X Laemmli Dye (Bio-Rad), heated at 95 °C for 5 minutes and loaded onto 4–12% Criterion™ XT Bis-Tris protein gels (Bio-Rad #3450123) or in-house prepared SDS-polyacrylamide gel and subjected to electrophoresis […]

| SMILES | inhibition of KDM4B-F186A (asKDM4B) H3K9me3 demethylation | inhibition of KDM4B-F186A H3K9me3 demethylation, dose-dependent |
| --- | --- | --- |
| CCCCCCCCOC(=O)C(=O)NC(CC(C)C)C(=O)O [6A, L-Leu octyl-ester NOG] | robust inhibition | Dose-dependent inhibition; also recorded: significantly reduced |
| CC(C)CC(NC(=O)C(=O)OCc1cccc(C(F)(F)F)c1)C(=O)O [6B, L-Leu TFMB-ester NOG] | robust inhibition | Dose-dependent inhibition; also recorded: significantly reduced |
